PMC9482650, “Quantitative fragmentomics allow affinity mapping of interactomes” (Nature Communications, 2022)
Ends that are not written are not given here.

Assays:
Experiment in all cases: Holdup assay
Type in all cases: binding
[1] = target: PDZD2_5 PDZ (Homo sapiens, UniProt O15018); details: sheet PPI_convert; read-out: affinity to PDZ PDZD2_5 (converted)
[2] = target: PDZD4 PDZ (Homo sapiens, UniProt Q76G19); details: sheet PPI_convert; read-out: affinity to PDZ PDZD4 (converted)
Excerpt: Supplement 41467_2022_33018_MOESM4_ESM.xlsx, sheet "PPI_convert" | column: PDZD4

[3] = target: MAGI2_6 PDZ (Homo sapiens, UniProt Q86UL8); details: composite holdup affinity; 0.00=below quantification threshold; read-out: COMP pKd (converted)
[4] = target: NHERF2_1 PDZ (Homo sapiens, UniProt Q15599); details: sheet PPI_convert; read-out: affinity to PDZ NHERF2_1 (converted)
[5] = target: DLG5_4 PDZ (Homo sapiens, UniProt Q8TDM6); details: sheet PPI_convert; read-out: affinity to PDZ DLG5_4 (converted)
[6] = target: MAGI1_5 PDZ (Homo sapiens, UniProt Q96QZ7); details: sheet PPI_convert; read-out: affinity to PDZ MAGI1_5 (converted)
[7] = target: NHERF4_3 PDZ (Homo sapiens, UniProt Q86UT5); details: sheet PPI_convert; read-out: affinity to PDZ NHERF4_3 (converted)
[8] = target: PDZRN3_2 PDZ (Homo sapiens, UniProt Q9UPQ7); details: sheet PPI_convert; read-out: affinity to PDZ PDZRN3_2 (converted)
[9] = target: PARD3B_3 PDZ (Homo sapiens, UniProt Q8TEW8); details: sheet PPI_convert; read-out: affinity to PDZ PARD3B_3 (converted)
[10] = target: MLLT4 PDZ (Homo sapiens, UniProt P55196); details: sheet PPI_convert; read-out: affinity to PDZ MLLT4 (converted)
Excerpt: Supplement 41467_2022_33018_MOESM4_ESM.xlsx, sheet "PPI_convert" | column: MLLT4

[11] = target: PDLIM4 PDZ (Homo sapiens, UniProt P50479); details: sheet PPI_convert; read-out: affinity to PDZ PDLIM4 (converted)
Excerpt: Supplement 41467_2022_33018_MOESM4_ESM.xlsx, sheet "PPI_convert" | column: PDLIM4

[12] = target: MPDZ_13 PDZ (Homo sapiens, UniProt O75970); details: sheet PPI_convert; read-out: affinity to PDZ MPDZ_13 (converted)
[13] = target: MAGI3_4 PDZ (Homo sapiens, UniProt Q5TCQ9); details: sheet PPI_convert; read-out: affinity to PDZ MAGI3_4 (converted)
[14] = target: MAGI1_6 PDZ (Homo sapiens, UniProt Q96QZ7); details: sheet PPI_convert; read-out: affinity to PDZ MAGI1_6 (converted)
[15] = target: MPP3 PDZ (Homo sapiens, UniProt Q13368); details: sheet PPI_convert; read-out: affinity to PDZ MPP3 (converted)
[16] = target: MPDZ_4 PDZ (Homo sapiens, UniProt O75970); details: sheet PPI_convert; read-out: affinity to PDZ MPDZ_4 (converted)
Excerpt: Supplement 41467_2022_33018_MOESM4_ESM.xlsx, sheet "PPI_convert" | column: MPDZ_4

[17] = target: MAGI1_3 PDZ (Homo sapiens, UniProt Q96QZ7); details: sheet PPI_convert; read-out: affinity to PDZ MAGI1_3 (converted)
[18] = target: Inadl_5 PDZ (Homo sapiens, UniProt Q8NI35)
[19] = target: MAGI1_4 PDZ (Homo sapiens, UniProt Q96QZ7)
[20] = target: GRIP2_2 PDZ (Homo sapiens, UniProt Q9C0E4)
[21] = target: MPDZ_10 PDZ (Homo sapiens, UniProt O75970)
[22] = target: Inadl_8 PDZ (Homo sapiens, UniProt Q8NI35)
[23] = target: RADIL PDZ (Homo sapiens, UniProt Q96JH8)
[24] = target: LNX2_2 PDZ (Homo sapiens, UniProt Q8N448)
[25] = target: GOPC PDZ (Homo sapiens, UniProt Q9HD26)
[26] = target: DFNB31_1 PDZ (Homo sapiens, UniProt Q9P202); details: composite holdup affinity; 0.00=below quantification threshold; read-out: COMP pKd (converted)
Sequence of DFNB31_1 PDZ (Q9P202 140-223 limits assumed): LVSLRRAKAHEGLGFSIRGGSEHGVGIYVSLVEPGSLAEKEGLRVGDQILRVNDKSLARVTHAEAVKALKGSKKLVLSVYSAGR

Sequence of MLLT4 PDZ (P55196 1007-1093 limits assumed): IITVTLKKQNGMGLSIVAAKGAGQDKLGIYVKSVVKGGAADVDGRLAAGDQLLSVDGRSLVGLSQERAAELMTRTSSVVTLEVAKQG
Sequence of MPDZ_4 PDZ (O75970 553-634 limits assumed): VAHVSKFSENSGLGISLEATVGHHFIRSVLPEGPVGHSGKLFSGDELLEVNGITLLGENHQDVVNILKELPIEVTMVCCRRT
Sequence of Inadl_8 PDZ (Q8NI35 1437-1520 limits assumed): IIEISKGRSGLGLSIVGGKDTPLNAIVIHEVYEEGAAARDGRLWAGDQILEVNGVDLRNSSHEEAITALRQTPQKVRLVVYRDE
Sequence of PDZD4 PDZ (Q76G19 130-214 limits assumed): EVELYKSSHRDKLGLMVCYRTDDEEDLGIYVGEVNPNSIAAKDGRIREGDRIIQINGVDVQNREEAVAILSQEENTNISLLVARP
Sequence of NHERF4_3 PDZ (Q86UT5 329-412 limits assumed): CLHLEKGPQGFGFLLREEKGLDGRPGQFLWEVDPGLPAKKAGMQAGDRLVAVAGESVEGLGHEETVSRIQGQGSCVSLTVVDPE
Sequence of RADIL PDZ (Q96JH8 976-1061 limits assumed): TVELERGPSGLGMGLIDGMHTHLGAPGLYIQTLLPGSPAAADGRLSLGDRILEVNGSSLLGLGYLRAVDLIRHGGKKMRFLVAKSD
Sequence of MAGI1_4 PDZ (Q96QZ7 813-895 limits assumed): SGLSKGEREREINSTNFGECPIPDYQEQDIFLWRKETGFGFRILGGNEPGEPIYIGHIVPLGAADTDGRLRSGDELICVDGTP
Sequence of MPDZ_13 PDZ (O75970 1987-2070 limits assumed): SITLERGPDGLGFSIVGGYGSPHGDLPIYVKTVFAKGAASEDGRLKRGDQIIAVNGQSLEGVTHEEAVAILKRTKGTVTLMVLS
Sequence of NHERF2_1 PDZ (Q15599 11-90 limits assumed): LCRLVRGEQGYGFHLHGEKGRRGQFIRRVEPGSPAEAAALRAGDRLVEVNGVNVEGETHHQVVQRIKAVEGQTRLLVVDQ
Sequence of DLG5_4 PDZ (Q8TDM6 1501-1582 limits assumed): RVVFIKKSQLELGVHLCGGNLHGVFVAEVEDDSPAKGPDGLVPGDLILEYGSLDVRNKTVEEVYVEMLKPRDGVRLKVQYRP
Sequence of MAGI3_4 PDZ (Q5TCQ9 726-808 limits assumed): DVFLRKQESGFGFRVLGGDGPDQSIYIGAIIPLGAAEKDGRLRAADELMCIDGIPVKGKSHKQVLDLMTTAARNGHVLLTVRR
Sequence of PARD3B_3 PDZ (Q8TEW8 498-585 limits assumed): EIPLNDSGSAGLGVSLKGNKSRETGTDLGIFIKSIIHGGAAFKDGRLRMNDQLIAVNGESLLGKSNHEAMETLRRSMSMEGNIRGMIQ
Sequence of MAGI1_3 PDZ (Q96QZ7 643-721 limits assumed): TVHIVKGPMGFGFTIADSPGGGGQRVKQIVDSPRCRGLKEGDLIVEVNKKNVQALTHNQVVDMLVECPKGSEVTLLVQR
Sequence of MAGI2_6 PDZ (Q86UL8 1147-1229 limits assumed): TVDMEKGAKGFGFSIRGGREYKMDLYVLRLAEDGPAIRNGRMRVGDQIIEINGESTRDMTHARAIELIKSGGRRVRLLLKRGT
Sequence of PDLIM4 PDZ (P50479 1-84 limits assumed): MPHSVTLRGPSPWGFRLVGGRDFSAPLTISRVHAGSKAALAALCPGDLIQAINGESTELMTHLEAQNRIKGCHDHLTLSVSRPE
Sequence of MPDZ_10 PDZ (O75970 1629-1712 limits assumed): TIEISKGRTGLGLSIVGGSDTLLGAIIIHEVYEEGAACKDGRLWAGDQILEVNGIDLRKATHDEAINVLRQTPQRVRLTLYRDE
Sequence of GRIP2_2 PDZ (Q9C0E4 148-234 limits assumed): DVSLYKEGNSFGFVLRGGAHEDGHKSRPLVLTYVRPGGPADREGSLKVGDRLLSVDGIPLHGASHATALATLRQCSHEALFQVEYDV
Sequence of PDZD2_5 PDZ (O15018 2622-2706 limits assumed): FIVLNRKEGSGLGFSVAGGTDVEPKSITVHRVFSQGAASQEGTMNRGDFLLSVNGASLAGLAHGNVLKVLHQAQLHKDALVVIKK
Sequence of Inadl_5 PDZ (Q8NI35 686-772 limits assumed): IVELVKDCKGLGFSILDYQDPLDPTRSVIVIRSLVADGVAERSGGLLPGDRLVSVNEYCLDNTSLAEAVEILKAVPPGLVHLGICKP
Sequence of PDZRN3_2 PDZ (Q9UPQ7 419-503 limits assumed): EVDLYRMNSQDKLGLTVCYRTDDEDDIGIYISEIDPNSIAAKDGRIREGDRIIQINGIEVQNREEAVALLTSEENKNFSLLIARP
Sequence of LNX2_2 PDZ (Q8N448 339-422 limits assumed): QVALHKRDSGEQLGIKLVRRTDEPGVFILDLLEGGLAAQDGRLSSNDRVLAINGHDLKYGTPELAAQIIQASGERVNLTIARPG
Sequence of MAGI1_5 PDZ (Q96QZ7 970-1066 limits assumed): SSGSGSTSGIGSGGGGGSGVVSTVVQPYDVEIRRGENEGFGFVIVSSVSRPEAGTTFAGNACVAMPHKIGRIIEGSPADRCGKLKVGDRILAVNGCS
Sequence of MPP3 PDZ (Q13368 137-212 limits assumed): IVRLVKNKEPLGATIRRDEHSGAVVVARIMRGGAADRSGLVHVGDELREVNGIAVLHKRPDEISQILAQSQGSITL
Sequence of MAGI1_6 PDZ (Q96QZ7 1124-1206 limits assumed): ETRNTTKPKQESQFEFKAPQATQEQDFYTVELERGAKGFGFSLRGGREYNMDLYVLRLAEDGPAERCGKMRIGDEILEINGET

Compound: SKPTRRETEV [HPV35-E6]
- Kd [1]: 170 µM
- Kd [2]: 282 µM
- Kd [3]: 324 µM
- Kd [4]: 170 µM
- Kd [5]: 219 µM
- Kd [6]: 37.2 µM
- Kd [7]: 166 µM
- Kd [8]: 269 µM
- Kd [9]: 186 µM
- Kd [10]: 162 µM
- Kd [11]: 69.2 µM
- Kd [12]: 170 µM
- Kd [13]: 174 µM
- Kd [14]: 219 µM
- Kd [15]: 200 µM
- Kd [16]: 282 µM
- Kd [17]: 81.3 µM

Compound: CC(C)C[C@H](NC(=O)[C@@H](N)CCCNC(=N)N)C(=O)N[C@@H](CCC(N)=O)C(=O)N[C@@H](CCCNC(=N)N)C(=O)N[C@@H](CCCNC(=N)N)C(=O)N[C@@H](CCCNC(=N)N)C(=O)N[C@@H](CCC(=O)O)C(=O)N[C@H](C(=O)N[C@@H](CCC(N)=O)C(=O)N[C@H](C(=O)O)C(C)C)[C@@H](C)O [HPV18-E6]
- Kd [18]: 302 µM
- Kd [19]: 52.5 µM
- Kd [20]: 33.1 µM
- Kd [21]: 275 µM
- Kd [22]: 479 µM
- Kd [23]: 525 µM
- Kd [24]: 676 µM
- Kd [25]: 661 µM

Compound: SRRPRTETQV [HPV31-E6]
- Kd [26]: 282 µM
